# Data from US20250270199A1, “THIAZOLE DERIVATIVES AND METHODS OF USING THE SAME” (Arkansas State University - Jonesboro, priority 2022, published 2025).
# Several values for one entry are separate records, joined by “and”; a condition that tells them apart may be missing. Equal entries are not always repeated. Where two headings read alike, the source gives them in different places.
# Columns and labels:
# [1] = tested on: S. aureus ATCC 25923 (Sa 23); assay: MIC, broth microdilution, Sa 23; type: cell-based; settings: for MIC: Staphylococcus aureus
# Procedure: (§1) The broth microdilution method was utilized to determine MIC values of novel thiazole derivatives against different clinically important Gram-positive bacteria according to the guidelines outlined by the Clinical and Laboratory Standards Institute (CLSI) as reported in our recent papers.^1-5 The starting concentration of compounds for MIC determination was 64 μg/mL serially diluted down the wells and the MIC values were recorded in duplicates in three independent experiments on different days.
# [2] = tested on: S. aureus LAC MRSA (Sa LAC); assay: MIC, broth microdilution, Sa LAC; type: cell-based; settings: Staphylococcus aureus, read-out: Minimum inhibitory concentration (MIC) Sa LAC
# Procedure: as §1
# [3] = tested on: S. aureus ATCC 33591 (Sa 91); assay: MIC, broth microdilution, Sa 91; type: cell-based; settings: for MIC: Staphylococcus aureus
# Procedure: as §1
# [4] = tested on: S. aureus ATCC BAA-2312 (Sa 12); assay: MIC, broth microdilution, Sa 12; type: cell-based; settings: Staphylococcus aureus
# Procedure: as §1
# [5] = tested on: E. faecalis ATCC 29212 (Efs 12); assay: MIC, broth microdilution, Efs 12; type: cell-based; settings: for MIC: Enterococcus faecalis; for Minimum inhibitory concentration (MIC) Efs 12: Table 1, HT series
# Procedure: as §1
# [6] = tested on: S. aureus ATCC 33592 (Sa 92); assay: MIC, broth microdilution, Sa 92; type: cell-based; settings: Staphylococcus aureus
# Procedure: as §1
# [7] = tested on: Sa UAMS-1 MRSA ATCC 49230 (Sa UAMS); assay: MIC, broth microdilution, Sa UAMS; type: cell-based, S. aureus; settings: Staphylococcus aureus
# Procedure: as §1
# [8] = tested on: S. aureus subsp. aureus Rosenbach ATCC 25904 (SA Newman); assay: MIC, broth microdilution, SA Newman; type: cell-based; settings: for MIC: Staphylococcus aureus, read-out: Minimum inhibitory concentration (MIC) Sa Newman
# Procedure: as §1
# [9] = tested on: S. aureus ATCC 700699 (Sa 99); assay: MIC, broth microdilution, Sa 99; type: cell-based; settings: for MIC: Staphylococcus aureus; for Minimum inhibitory concentration (MIC) Sa 99: Table 1, HT series
# Procedure: as §1
# [10] = tested on: E. faecium ATCC 700221 (Efm 21); assay: MIC, broth microdilution, Efm 21; type: cell-based; settings: Enterococcus faecium, ATCC700221, Table 2, HTM series; read-out: Minimum inhibitory concentration (MIC) Efm 21
# Procedure: as §1
# [11] = tested on: S. aureus subsp. aureus Rosenbach BAA-1717 (Sa USA 300); assay: MIC, broth microdilution, Sa USA 300; type: cell-based; settings: Staphylococcus aureus, read-out: Minimum inhibitory concentration (MIC) Sa USA 300
# Procedure: as §1
# [12] = tested on: E. faecalis ATCC 51299 (Efs 99); assay: MIC, broth microdilution, Efs 99; type: cell-based; settings: Enterococcus faecalis, ATCC51299; Table 2, HTM series; read-out: Minimum inhibitory concentration (MIC) Efs 99
# Procedure: as §1
# [13] = tested on: S. epidermidis ATCC 700296 (Se); assay: MIC, broth microdilution, Se; type: cell-based; settings: Staphylococcus epidermidis
# Procedure: as §1
# [14] = ATCC25923, Table 1, HT series, replicates from different days separated by comma, read-out: Minimum inhibitory concentration (MIC) Sa 23
# [15] = Table 1, HT series, replicates from different days separated by comma
# [16] = ATCC33591, Table 1, HT series, read-out: Minimum inhibitory concentration (MIC) Sa 91
# [17] = ATCCBAA2312, Table 1, HT series, read-out: Minimum inhibitory concentration (MIC) Sa 12
# [18] = ATCC29212, Table 1, HT series, replicates from different days separated by comma, read-out: Minimum inhibitory concentration (MIC) Efs 12
# [19] = replicates from different days separated by comma
# [20] = ATCC33592, Table 1, HT series, read-out: Minimum inhibitory concentration (MIC) Sa 92
# [21] = Table 1, HT series, read-out: Minimum inhibitory concentration (MIC) Sa UAMS
# [22] = ATCC700699, Table 1, HT series, replicates from different days separated by comma, read-out: Minimum inhibitory concentration (MIC) Sa 99
# [23] = ATCC25923, Table 2, HTM series, read-out: Minimum inhibitory concentration (MIC) Sa 23
# [24] = ATCC33591, Table 2, HTM series, read-out: Minimum inhibitory concentration (MIC) Sa 91
# [25] = ATCCBAA2312, Table 2, HTM series, read-out: Minimum inhibitory concentration (MIC) Sa 12
# [26] = ATCC700296, Table 2, HTM series, read-out: Minimum inhibitory concentration (MIC) Se
# [27] = ATCC29212, Table 2, HTM series, read-out: Minimum inhibitory concentration (MIC) Efs 12
# [28] = ATCC33592, Table 2, HTM series, read-out: Minimum inhibitory concentration (MIC) Sa 92
# [29] = Table 2, HTM series, read-out: Minimum inhibitory concentration (MIC) Sa UAMS-1
# [30] = ATCC700699, Table 2, HTM series, read-out: Minimum inhibitory concentration (MIC) Sa 99
SMILES,"MIC [1, 14]","Minimum inhibitory concentration (MIC) Sa 23 [1, 15]","MIC ([2]; Table 1, HT series)","MIC [3, 16]","MIC [4, 17]","MIC [5, 18]","Minimum inhibitory concentration (MIC) Efs 12 [5, 19]","MIC [6, 20]","MIC [7, 21]","MIC ([8]; Table 1, HT series)","MIC [9, 22]","Minimum inhibitory concentration (MIC) Sa 99 [9, 19]",further results
"Oc1ccc(-c2nc(-c3ccccc3)cs2)cc1O [Compound 2, 4-(4-phenylthiazol-2-yl)benzene-1,2-diol]",8 µg/mL,16 µg/mL,32 µg/mL,16 µg/mL,32 µg/mL,> 32 µg/mL,">32, >32, >32 μg/mL",16 µg/mL,32 µg/mL,32 µg/mL,32 µg/mL,16 µg/mL,–
"Oc1ccc(-c2nc(-c3cccc(Cl)c3)cs2)cc1O [Compound 3, 4-(4-(3-chlorophenyl)thiazol-2-yl)benzene-1,2-diol]",2 µg/mL,"2, 2, 2 μg/mL",8 µg/mL,4 µg/mL,8 µg/mL,16 µg/mL,8 µg/mL and 16 µg/mL,8 µg/mL,8 µg/mL,4 µg/mL,4 µg/mL,"4, 4, 4 μg/mL",–
"Oc1ccc(-c2nc(-c3ccc(F)cc3)cs2)cc1O [Compound 4, 4-(4-(4-fluorophenyl)thiazol-2-yl)benzene-1,2-diol]",4 µg/mL,8 µg/mL,16 µg/mL,8 µg/mL,16 µg/mL,32 µg/mL,"32, 32, 32 μg/mL",16 µg/mL,16 µg/mL,8 µg/mL,–,16 μg/mL (2×) and 4 μg/mL,–
"Oc1ccc(-c2nc(-c3ccc(Cl)cc3Cl)cs2)cc1O [Compound 6, 4-(4-(2,4-dichlorophenyl)thiazol-2-yl)benzene-1,2-diol]",2 µg/mL,"2, 2, 2 μg/mL",8 µg/mL,4 µg/mL,8 µg/mL,–,16 µg/mL and 2 µg/mL and 8 µg/mL,8 µg/mL,8 µg/mL,4 µg/mL,2 µg/mL,"2, 2, 2 μg/mL",–
"Oc1ccc(-c2csc(-c3ccc(O)c(O)c3)n2)cc1 [Compound 8, 4-(4-(4-hydroxyphenyl)thiazol-2-yl)benzene-1,2-diol]",16 µg/mL,"16, 16, 16 μg/mL",16 µg/mL,32 µg/mL,16 µg/mL,> 32 µg/mL,">32, >32, >32 μg/mL",32 µg/mL,32 µg/mL,16 µg/mL,16 µg/mL,8 µg/mL,–
"Oc1ccc(-c2nc(-c3ccc4ccccc4c3)cs2)cc1O [Compound 14, 4-(4-(naphthalen-2-yl)thiazol-2-yl)benzene-1,2-diol]",2 µg/mL,"2, 2, 2 μg/mL",4 µg/mL,8 µg/mL,8 µg/mL,16 µg/mL,"16, 16, 16 μg/mL",8 µg/mL,8 µg/mL,8 µg/mL,2 µg/mL,"2, 2, 2 μg/mL",–
"Oc1ccc(-c2csc(Nc3ccc(Cl)c(Cl)c3)n2)cc1O [Compound 74, 4-(2-((3,4-dichlorophenyl)amino)thiazol-4-yl)benzene-1,2-diol]",–,–,–,–,–,–,–,–,–,–,–,–,"MIC [1, 23]: 4 µg/mL; MIC [3, 24]: 8 µg/mL; MIC [4, 25]: 4 µg/mL; MIC [10]: 4 µg/mL; MIC ([11]; Table 2, HTM series): 8 µg/mL; MIC [12]: 8 µg/mL; MIC [13, 26]: 4 µg/mL; MIC [5, 27]: 8 µg/mL; MIC [6, 28]: 4 µg/mL; MIC [7, 29]: 8 µg/mL; MIC ([8]; Table 2, HTM series): 8 µg/mL; MIC [9, 30]: 4 µg/mL"
"Oc1ccc(-c2csc(Nc3ccc(Cl)c(Cl)c3)n2)cc1 [Compound 75, 4-(2-((3,4-dichlorophenyl)amino)thiazol-4-yl)phenol]",–,–,–,–,–,–,–,–,–,–,–,–,"MIC [1, 23]: 2 µg/mL; MIC [3, 24]: 2 µg/mL; MIC [4, 25]: 2 µg/mL; MIC [10]: 4 µg/mL; MIC ([11]; Table 2, HTM series): 2 µg/mL; MIC [12]: 4 µg/mL; MIC [13, 26]: 2 µg/mL; MIC [5, 27]: 4 µg/mL; MIC [6, 28]: 2 µg/mL; MIC [7, 29]: 2 µg/mL; MIC ([8]; Table 2, HTM series): 4 µg/mL; MIC [9, 30]: 2 µg/mL"
"CN[C@H](CC(C)C)C(=O)N[C@H]1C(=O)N[C@@H](CC(N)=O)C(=O)N[C@H]2C(=O)N[C@H]3C(=O)N[C@H](C(=O)N[C@H](C(=O)O)c4cc(O)cc(O)c4-c4cc3ccc4O)[C@H](O)c3ccc(c(Cl)c3)Oc3cc2cc(c3O[C@@H]2O[C@H](CO)[C@@H](O)[C@H](O)[C@H]2O[C@H]2C[C@](C)(N)[C@H](O)[C@H](C)O2)Oc2ccc(cc2Cl)[C@H]1O [Vanc., Vancomycin, reference compound]",–,–,–,–,–,–,–,–,–,–,–,–,"MIC ([1]; ATCC25923, read-out: Minimum inhibitory concentration (MIC) Sa 23): 1 µg/mL; Minimum inhibitory concentration (MIC) Sa 23 ([1]; Table 2, HTM series): 1 µg/mL; MIC [2]: 1 µg/mL; MIC ([3]; ATCC33591, read-out: Minimum inhibitory concentration (MIC) Sa 91): 2 µg/mL; Minimum inhibitory concentration (MIC) Sa 91 ([3]; Table 2, HTM series): 2 µg/mL; MIC ([4]; ATCCBAA2312, read-out: Minimum inhibitory concentration (MIC) Sa 12, Table 1, HT series): 1 µg/mL; MIC ([4]; ATCCBAA2312, read-out: Minimum inhibitory concentration (MIC) Sa 12, Table 2, HTM series): 0.5 µg/mL; MIC [11]: 1 µg/mL; MIC ([13]; ATCC700296, read-out: Minimum inhibitory concentration (MIC) Se): 2 µg/mL; MIC ([5]; ATCC29212, read-out: Minimum inhibitory concentration (MIC) Efs 12, Table 1, HT series, replicates from different days separated by comma): 2 µg/mL; MIC ([5]; ATCC29212, read-out: Minimum inhibitory concentration (MIC) Efs 12, Table 2, HTM series): 4 µg/mL; MIC ([6]; ATCC33592, read-out: Minimum inhibitory concentration (MIC) Sa 92, Table 1, HT series): 1 µg/mL; MIC ([6]; ATCC33592, read-out: Minimum inhibitory concentration (MIC) Sa 92, Table 2, HTM series): 2 µg/mL; MIC ([7]; read-out: Minimum inhibitory concentration (MIC) Sa UAMS): 2 µg/mL; MIC ([7]; read-out: Minimum inhibitory concentration (MIC) Sa UAMS-1): 1 µg/mL; MIC [8]: 2 µg/mL; Minimum inhibitory concentration (MIC) Sa Newman ([8]; Table 2, HTM series): 2 µg/mL; MIC ([9]; ATCC700699, read-out: Minimum inhibitory concentration (MIC) Sa 99, Table 1, HT series, replicates from different days separated by comma): 2 µg/mL; MIC ([9]; ATCC700699, read-out: Minimum inhibitory concentration (MIC) Sa 99, Table 2, HTM series): 4 µg/mL"
